Here are results for five molecules from patent US9682925B2, “Cyclopropaneamine compound” (TAKEDA PHARMACEUTICAL COMPANY LIMITED, priority 2011, dated 2017).

One test addresses T1, MAO-A (Homo sapiens, UniProt P21397).
T1 construct: purchased Sigma-Aldrich Co. LLC
T1 sequence (P21397 1-527): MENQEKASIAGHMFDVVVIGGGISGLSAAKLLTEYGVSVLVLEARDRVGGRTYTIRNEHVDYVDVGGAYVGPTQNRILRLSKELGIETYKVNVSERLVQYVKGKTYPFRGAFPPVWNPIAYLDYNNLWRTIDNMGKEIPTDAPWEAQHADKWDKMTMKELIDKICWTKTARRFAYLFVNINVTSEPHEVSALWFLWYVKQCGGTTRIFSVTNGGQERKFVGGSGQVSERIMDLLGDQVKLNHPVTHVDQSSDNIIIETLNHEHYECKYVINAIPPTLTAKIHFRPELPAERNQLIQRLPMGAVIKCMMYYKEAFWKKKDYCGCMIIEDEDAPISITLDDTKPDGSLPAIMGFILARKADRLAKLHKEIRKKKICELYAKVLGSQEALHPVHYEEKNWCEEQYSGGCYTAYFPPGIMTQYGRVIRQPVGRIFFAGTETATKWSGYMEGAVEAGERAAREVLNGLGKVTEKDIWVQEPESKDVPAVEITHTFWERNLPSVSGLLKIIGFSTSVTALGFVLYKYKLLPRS
The experiment in a line: Measurement of MAO-A inhibitory activity (MAO-Glo Assay). Format: biochemical. A digest of the protocol:
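MAO-A (400 ng) was pre-incubated with compound 10 min at room temperature in 100 mM HEPES pH 7.5, 5% glycerol, then MAO substrate (160 μM stock) added for 60 min. Luciferin detection reagent, 20 min, luminescence; % inhibition against no-compound control minus no-enzyme blank.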

The target in a further test is T2, MAO-B (Homo sapiens, UniProt P27338).
T2 construct: purchased Sigma-Aldrich Co. LLC
T2 sequence (P27338 1-520): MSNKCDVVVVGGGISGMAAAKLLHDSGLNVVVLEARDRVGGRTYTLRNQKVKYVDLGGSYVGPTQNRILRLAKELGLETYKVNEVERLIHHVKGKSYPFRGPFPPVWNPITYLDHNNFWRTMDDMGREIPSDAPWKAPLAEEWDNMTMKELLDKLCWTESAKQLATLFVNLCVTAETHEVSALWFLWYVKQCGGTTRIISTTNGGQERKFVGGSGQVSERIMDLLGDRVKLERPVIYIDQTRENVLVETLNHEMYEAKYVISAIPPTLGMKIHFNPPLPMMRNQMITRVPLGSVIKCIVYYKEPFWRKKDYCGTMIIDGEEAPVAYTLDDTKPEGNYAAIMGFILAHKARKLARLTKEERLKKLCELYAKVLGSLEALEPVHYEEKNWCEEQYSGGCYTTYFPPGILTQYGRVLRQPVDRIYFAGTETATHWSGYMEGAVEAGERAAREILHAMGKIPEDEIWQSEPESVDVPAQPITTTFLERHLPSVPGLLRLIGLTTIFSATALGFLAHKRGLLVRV
Put plainly: Measurement of MAO-B inhibitory activity (MAO-Glo Assay). Format: biochemical. A digest of the protocol:
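Percent inhibition was calculated from luciferin-based luminescence, corrected with a blank lacking enzyme and a control lacking compound. The reaction ran 60 min at room temperature after adding MAO substrate (16 µM as added). This followed a 10 min compound–enzyme preincubation in HEPES pH 7.5 buffer.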

Test [1] deals with HEL92.1.7 acute myeloid leukemia cells. The experiment in a line: Tumor growth suppressive effect test using HEL92.1.7 acute myeloid leukemia cell. Format: in vivo, SCID mice. To be noted: change rate in tumor volume, vehicle-treated group = 100%, 30 mg/kg orally once per day. As for the experimental part:
Tumor Growth Suppressive Effect Test Using HEL92.1.7 Acute Myeloid Leukemia Cell
6-Week-old SCID mice were subcutaneously transplanted with 5×10^6 cells/100 μl of HEL92.1.7 acute myeloid leukemia cells, and the mice were grouped according to the body weight and tumor volume after 15 to 17 days. Vehicle (0.5% methylcellulose) or compound A, compound B or compound C was administered orally to mice (5 mice per group). The administration was once per day and performed continuously during the dosing period. Setting the change in tumor volume of the vehicle-treated group as 100%, the change rate in tumor volume of the compound-treated group (T/C %) was calculated. The tumor volume was determined by measuring the long diameter m and short diameter of the tumor with a vernier caliper, and calculating by the following calculation formula: (long diameter)×(short diameter)×(short diameter)/2.

The next test deals with T3, human LSD1(171-852) (Homo sapiens, UniProt O60341).
T3 construct: to give hLSD1(171-852) purified product; made in house; host or cells: Escherichia coli C43(DE3) pLysS
The experiment in a line: Measurement of LSD1 inhibitory activity (time-resolved fluorescence, biotin-histone H3 mono methylated K4 peptide). In kind it is biochemical. To be noted: read-out: LSD1 IC50 value.

Structures can show the parent of a compound that is named as a salt. Where only a bound is given, the exact number is not on record here.

Broadly, the IC50 is the concentration that gives 50% inhibition. As to `O=C(Nc1ccc([C@@H]2C[C@H]2NCC2CC2)cc1)c1ccc(-c2ccccc2)cc1` (single isomer, unassigned) [Example 59, N-(4-{trans-2-[(cyclopropylmethyl)amino]cyclopropyl}phenyl)biphenyl-4-carboxamide hydrochloride], the IC50 on MAO-A is 7.1 µM; at MAO-B, over 10 µM. Moreover, the “T/C (%)” value in test [1] (dosing period 14 days) came out at 12.54%.
As to `O=C(Nc1ccc([C@@H]2C[C@H]2NCC2CC2)cc1)c1cn[nH]c1` (relative stereo) [Example 79, N-(4-{trans-2-[(cyclopropylmethyl)amino]cyclopropyl}phenyl)-1H-pyrazole-4-carboxamide hydrochloride], the IC50 at MAO-A is over 10 µM; on human LSD1(171-852), under 0.1 µM; against MAO-B it was over 10 µM. For the same molecule, in test [1] (dosing period 14 days), the “T/C (%)” value came out at 46.42%.
Consider `CN1CCC(N[C@@H]2C[C@H]2c2ccc(NC(=O)c3cccc(C(F)(F)F)c3)cc2)CC1` (relative stereo) [Example 76, N-(4-{trans-2-[(1-methylpiperidin-4-yl)amino]cyclopropyl}phenyl)-3-(trifluoromethyl)benzamide dihydrochloride], for which the IC50 was over 10 µM at MAO-A, under 0.1 µM on human LSD1(171-852) and over 10 µM on MAO-B. In addition, in test [1] (dosing period 7 days), the “T/C (%)” value is on record as −8.08%.
As for `O=C(Nc1ccc([C@@H]2C[C@H]2NCc2ccccc2F)cc1)c1cccc(C(F)(F)F)c1` (relative stereo) [Example 67, N-(4-{trans-2-[(2-fluorobenzyl)amino]cyclopropyl}phenyl)-3-(trifluoromethyl)benzamide hydrochloride], the IC50 on MAO-A was over 10 µM; at human LSD1(171-852), under 0.1 µM; against MAO-B, over 10 µM.
Regarding `CS(=O)(=O)c1ccc(C(=O)Nc2ccc([C@@H]3C[C@H]3NCC3CC3)cc2)cc1` (relative stereo) [Example 87, N-(4-{trans-2-[(cyclopropylmethyl)amino]cyclopropyl}-phenyl)-4-(methylsulfonyl)-benzamide], the IC50 was over 10 µM at MAO-A, under 0.1 µM at human LSD1(171-852) and over 10 µM against MAO-B.
